In patent publication US20210246115A1 (Bioimics AB, priority 2017, published 2021):
Counter-ions that a name gives are not always drawn. Like-named read-outs stand apart in the source and are kept apart here.

How the values were obtained:
[1] = system: E. coli RNase P RNA, M1 RNA; experiment: Initial screening for inhibition of RNase P activity (normalised cleavage of pATSerUG at maximum compound concentration); assay type: biochemical; settings: normalised cleavage (cleavage with compound / without compound) at maximum compound concentration
[2] = system: Enterococcus faecalis (ATCC29212); experiment: MIC, broth microdilution (CLSI), Enterococcus faecalis; assay type: cell-based
[3] = system: Pseudomonas aeruginosa (ATCC27853); experiment: MIC, broth microdilution (CLSI), Pseudomonas aeruginosa; assay type: cell-based
[4] = system: Staphylococcus aureus subsp. aureus (ATCC29213); experiment: MIC, broth microdilution (CLSI), Staphylococcus aureus ATCC29213; assay type: cell-based; settings: Staphylococcus aureus
[5] = system: E. coli RNase P RNA, M1 RNA; experiment: Inhibition of bacterial RNase P activity, IC50 determination (cleavage of pATSerUG by M1 RNA); assay type: biochemical; settings: NI: No inhibition
[6] = system: S. aureus MRSA ATCC 33591; experiment: MIC, S. aureus MRSA ATCC 33591; assay type: cell-based; settings: Staphylococcus aureus, read-out: S. aureus MRSA ATCC 33591 MIC
E. faecium ATCC 700221 = experiment: MIC, E. faecium ATCC 700221; assay type: cell-based; settings: Enterococcus faecium
S. pneumoniae ATCC 49619 = experiment: MIC, S. pneumoniae ATCC 49619; assay type: cell-based; settings: Streptococcus pneumoniae, ATCC49619; Table XIV A. Gram-positive bacteria
[7] = system: E. coli JW5503 (efflux defective); experiment: MIC, E. coli JW5503 (efflux defective); assay type: cell-based; settings: Escherichia coli, read-out: E. coli JW5503 (efflux defective) MIC
K. pneumoniae ATCC 43816 = experiment: MIC, K. pneumoniae ATCC 43816; assay type: cell-based; settings: Klebsiella pneumoniae, ATCC43816; Table XIV B. Gram-negative bacteria
H. influenzae ATCC 49247 = experiment: MIC, H. influenzae ATCC 49247; assay type: cell-based; settings: Haemophilus influenzae, ATCC49247; Table XIV B. Gram-negative bacteria
A. baumannii ATCC 17978 = experiment: MIC, A. baumannii ATCC 17978; assay type: cell-based; settings: Acinetobacter baumannii, ATCC17978; Table XIV B. Gram-negative bacteria
[8] = system: P. aeruginosa NTUH974 (MDR); experiment: MIC, P. aeruginosa NTUH974 (MDR); assay type: cell-based; settings: Pseudomonas aeruginosa, read-out: P. aeruginosa NTUH974 (MDR) MIC
[9] = system: N. gonorrhoeae ATCC 700825; experiment: MIC, N. gonorrhoeae ATCC 700825; assay type: cell-based; settings: Neisseria gonorrhoeae, ATCC700825; Table XIV B. Gram-negative bacteria
[10] = system: Escherichia coli (ATCC25922); experiment: MIC, broth microdilution (CLSI), Escherichia coli; settings: Escherichia coli
[11] = system: Staphylococcus aureus (ATCC25923); experiment: MIC, broth microdilution (CLSI), Staphylococcus aureus ATCC25923; settings: Staphylococcus aureus, ATCC25923, read-out: S. aureus ATCC 25923 MIC
[12] = ATCC29212, Table XIV A. Gram-positive bacteria, read-out: E. faecalis ATCC 29212 MIC
[13] = ATCC27853, Table XIV B. Gram-negative bacteria, read-out: P. aeruginosa ATCC 27853 MIC
[14] = ATCC29213, Table XIII, read-out: S. aureus ATCC 29213 MIC
[15] = ATCC29213, Table XIV A. Gram-positive bacteria, read-out: S. aureus ATCC 29213 MIC
[16] = Table XIV A. Gram-positive bacteria
[17] = ATCC700221, Table XIV A. Gram-positive bacteria, read-out: E. faecium ATCC 700221 MIC
[18] = Table XIV B. Gram-negative bacteria
[19] = ATCC25922, read-out: E. coli ATCC 25922 MIC, Table XIII
[20] = ATCC25922, read-out: E. coli ATCC 25922 MIC, Table XIV B. Gram-negative bacteria
[21] = ATCC29212, read-out: E. faecalis ATCC 29212 MIC
[22] = ATCC27853, read-out: P. aeruginosa ATCC 27853 MIC
[23] = ATCC29213, read-out: S. aureus ATCC 29213 MIC, Table XIV A. Gram-positive bacteria
[24] = ATCC700221, read-out: E. faecium ATCC 700221 MIC

Cl.Clc1ccc(CNCCc2c[nH]c3ccccc23)c(Cl)n1 [Compound 8, N-((2,6-dichloropyridin-3-yl)methyl)-2-(1H-indol-3-yl)ethan-1-amine hydrochloride salt]
Initial screening of RNase P Inhibition [1]: 0.96

Cc1cccc(C(CCNC2CCNCC2)c2cn(CC3CCCCC3)c3ccc(Br)cc23)c1.Cl (stereo not drawn) [Compound 163, N-(3-(5-bromo-1-(cyclohexylmethyl)-1H-indol-3-yl)-3-(m-tolyl)propyl)piperidin-4-amine hydrochloride salt]
MIC [2, 12]: 2 µg/mL | MIC [3, 13]: 16 µg/mL | MIC [4, 14]: 2 µg/mL | MIC [4, 15]: 4 µg/mL | IC50 [5]: 8.5 µM | MIC [6, 16]: 4 µg/mL | MIC (E. faecium ATCC 700221; [17]): 2 µg/mL | MIC (S. pneumoniae ATCC 49619): 8 µg/mL | MIC [7]: 4 µg/mL | MIC (K. pneumoniae ATCC 43816): 4 µg/mL | MIC (H. influenzae ATCC 49247): 4 µg/mL | MIC (A. baumannii ATCC 17978): 4 µg/mL | MIC [8, 18]: 16 µg/mL | MIC [9]: 2 µg/mL | MIC [10, 19]: 2 µg/mL | MIC [10, 20]: 4 µg/mL | MIC [11]: 1 µg/mL

NC1CCC(NCCC(c2cccc(C(F)(F)F)c2)c2cn(CC3CCCCC3)c3ccccc23)CC1 [Compound 168, (1S,4S)-N1-(3-(1-(cyclohexylmethyl)-1H-indol-3-yl)-3-(3-(trifluoromethyl)phenyl)propyl)cyclohexane-1,4-diamine hydrochloride salt]
MIC [2, 12]: 2 µg/mL | MIC [3, 13]: 16 µg/mL | MIC [4, 15]: 2 µg/mL | IC50 [5]: 11 µM | MIC [6, 16]: 4 µg/mL | MIC (E. faecium ATCC 700221; [17]): 2 µg/mL | MIC (S. pneumoniae ATCC 49619): 8 µg/mL | MIC [7]: 4 µg/mL | MIC (K. pneumoniae ATCC 43816): 4 µg/mL | MIC (H. influenzae ATCC 49247): 4 µg/mL | MIC (A. baumannii ATCC 17978): 4 µg/mL | MIC [8, 18]: 16 µg/mL | MIC [9]: 2 µg/mL | MIC [10, 19]: 5 µg/mL | MIC [10, 20]: 4 µg/mL | MIC [11]: 2 µg/mL

NC1CCC(NCCC(c2cccc(Cl)c2)c2cn(CC3CCCCC3)c3ccccc23)CC1 [Compound 170, (1S,4S)-N1-(3-(3-chlorophenyl)-3-(1-(cyclohexylmethyl)-1H-indol-3-yl)propyl) cyclohexane-1,4-diamine hydrochloride salt]
MIC [2, 12]: 2 µg/mL | MIC [3, 13]: 16 µg/mL | MIC [4, 15]: 2 µg/mL | IC50 [5]: 16 µM | MIC [6, 16]: 4 µg/mL | MIC (E. faecium ATCC 700221; [17]): 2 µg/mL | MIC (S. pneumoniae ATCC 49619): 8 µg/mL | MIC [7]: 2 µg/mL | MIC (K. pneumoniae ATCC 43816): 8 µg/mL | MIC (H. influenzae ATCC 49247): 4 µg/mL | MIC (A. baumannii ATCC 17978): 4 µg/mL | MIC [8, 18]: 32 µg/mL | MIC [9]: 2 µg/mL | MIC [10, 19]: 4 µg/mL | MIC [10, 20]: 4 µg/mL | MIC [11]: 2 µg/mL

Cc1ccccc1C(CCNC1CCC(N)CC1)c1cn(CC2CCCCC2)c2ccccc12 (stereo not drawn) [Compound 186, N1-(3-(1-(cyclohexylmethyl)-1H-indol-3-yl)-3-(o-tolyl)propyl)cyclohexane-1,4-diamine hydrochloride salt]
MIC [2, 21]: 4 µg/mL | MIC [3, 22]: 16 µg/mL | MIC ([4]; ATCC29213, read-out: S. aureus ATCC 29213 MIC, Table XIII): 4 µg/mL | MIC [4, 23]: 4 µg/mL | IC50 [5]: 3.6 µM | MIC [6]: 4 µg/mL | MIC (E. faecium ATCC 700221; [24]): 2 µg/mL | MIC (S. pneumoniae ATCC 49619): 8 µg/mL | MIC [7]: 2 µg/mL | MIC (K. pneumoniae ATCC 43816): 8 µg/mL | MIC (H. influenzae ATCC 49247): 8 µg/mL | MIC (A. baumannii ATCC 17978): 4 µg/mL | MIC [8]: 32 µg/mL | MIC [9]: 2 µg/mL | MIC [10, 19]: 4 µg/mL | MIC [10, 20]: 4 µg/mL | MIC [11]: 4 µg/mL

Cc1cccc(CC(CC(=O)N[C@H]2CC[C@H](N)CC2)c2cn(CC3CCCCC3)c3ccccc23)c1.Cl (stereo partly drawn) [Compound 202, N-((1R,4R)-4-aminocyclohexyl)-3-(1-(cyclohexylmethyl)-1H-indol-3-yl)-4-(m-tolyl)butanamide hydrochloride salt]
MIC [2, 12]: 8 µg/mL | MIC [3, 13]: 32 µg/mL | MIC [4, 15]: 16 µg/mL | IC50 [5]: 10.7 µM | MIC [6, 16]: 8 µg/mL | MIC (E. faecium ATCC 700221; [17]): 4 µg/mL | MIC (S. pneumoniae ATCC 49619): 16 µg/mL | MIC [7]: 16 µg/mL | MIC (K. pneumoniae ATCC 43816): 64 µg/mL | MIC (H. influenzae ATCC 49247): 16 µg/mL | MIC (A. baumannii ATCC 17978): 32 µg/mL | MIC [8, 18]: 32 µg/mL | MIC [9]: 4 µg/mL | MIC [10, 19]: 33 µg/mL | MIC [10, 20]: 128 µg/mL | MIC [11]: 2 µg/mL

Cc1cccc(C(CCN2CCC(N)CC2)c2cn(CC3CCCCC3)c3ccccc23)c1 (stereo not drawn) [Compound 216, 1-(3-(1-(cyclohexylmethyl)-1H-indol-3-yl)-3-(m-tolyl)propyl)piperidin-4-amine hydrochloride salt]
MIC [2, 21]: 4 µg/mL | MIC [3, 22]: 64 µg/mL | MIC [4, 23]: 4 µg/mL | IC50 [5]: 25 µM | MIC [6]: 4 µg/mL | MIC (E. faecium ATCC 700221; [24]): 2 µg/mL | MIC (S. pneumoniae ATCC 49619): 8 µg/mL | MIC [7]: 4 µg/mL | MIC (K. pneumoniae ATCC 43816): 128 µg/mL | MIC (H. influenzae ATCC 49247): 4 µg/mL | MIC (A. baumannii ATCC 17978): 8 µg/mL | MIC [8]: 64 µg/mL | MIC [9]: 2 µg/mL | MIC [10, 19]: 4 µg/mL | MIC [10, 20]: 8 µg/mL | MIC [11]: 4 µg/mL

Cc1cccc(C(CCNC2CCC(N)CC2)c2cn(CC34CC5CC(CC(C5)C3)C4)c3ccccc23)c1 [Compound 232, (1S,4S)-N1-(3-(1-(((1S,4S)-adamantan-1-yl)methyl)-1H-indol-3-yl)-3-(m-tolyl)propyl)cyclohexane-1,4-diamine hydrochloride salt]
MIC [2, 12]: 4 µg/mL | MIC [3, 13]: 32 µg/mL | MIC [4, 15]: 4 µg/mL | IC50 [5]: 8.3 µM | MIC [6, 16]: 4 µg/mL | MIC (E. faecium ATCC 700221; [17]): 2 µg/mL | MIC (S. pneumoniae ATCC 49619): 8 µg/mL | MIC [7]: 4 µg/mL | MIC (K. pneumoniae ATCC 43816): 8 µg/mL | MIC (H. influenzae ATCC 49247): 8 µg/mL | MIC (A. baumannii ATCC 17978): 8 µg/mL | MIC [8, 18]: 32 µg/mL | MIC [9]: 4 µg/mL | MIC [10, 19]: 5 µg/mL | MIC [10, 20]: 4 µg/mL | MIC [11]: 2 µg/mL

N[C@H]1CC[C@H](NCCc2cn(CC3CCCCC3)c3ccc(-c4cccc(OC(F)(F)F)c4)cc23)CC1 [Compound 274, hydrochloride salt]
MIC [2, 12]: 2 µg/mL | MIC [3, 13]: 8 µg/mL | MIC [4, 14]: 4 µg/mL | MIC [4, 15]: 2 µg/mL | IC50 [5]: 6.53 µM | MIC [6, 16]: 2 µg/mL | MIC (E. faecium ATCC 700221; [17]): 2 µg/mL | MIC (S. pneumoniae ATCC 49619): 8 µg/mL | MIC [7]: 4 µg/mL | MIC (K. pneumoniae ATCC 43816): 8 µg/mL | MIC (H. influenzae ATCC 49247): 4 µg/mL | MIC (A. baumannii ATCC 17978): 8 µg/mL | MIC [8, 18]: 16 µg/mL | MIC [9]: 2 µg/mL | MIC [10, 19]: 2 µg/mL | MIC [10, 20]: 4 µg/mL | MIC [11]: 2 µg/mL
